In patent US20100210467A1, “AGENT FOR IMPROVING SUGARCANE BRIX AND METHOD OF PROMOTING SUGARCANE RIPENING USING THE SAME” (Kumiai Chemical Industry Co., Ltd., priority 2007, published 2010):

Tests used:
Format in all cases: in vivo
sugarcane [1] = experiment: Example 4: sugar content of sugarcane stem juice after pyribenzoxim back pack spraying, field test in Brazil; conditions: 40 g/ha
Protocol: (§1) In accordance with “NORMAS DE AVALIAçÃO DA […] DA CANA-DE-AçÚCAR” used in Brazilian sugar refining plants as Standard for quality evaluation of sugarcane, the analysis on the sugar content in the squeezed juice of sugarcane stem was carried out for Brix value, sugar content in sugarcane (PC), and total sugar amount recoverable from sugarcane stem (ATR) as follows.
(§2) Brix was measured according to a digital refractometer. PC was calculated according to the equation (1). ATR was calculated according to the equation (5).
At the time the Brix value of sugarcane grown in a sugarcane cultivated area in Brazil (an average Brix value in the harvesttime being 20%) became 86% of the aforesaid average Brix value, a pyribenzoxim formulation (a tradename “PYANCHOR”) was diluted with water so that the amount of the effective ingredient in 105 liters of the spraying liquid could be equal to the used amount shown in Table 6, and the liquid was sprayed above the plant by the aid of a CO2-pressurized back pack sprayer to the test area at a rate of 105 liters per hectare.
(§3) In a control area, a known sulfometuron-methyl formulation (a commercially available product, a tradename “CURAVIAL”) was similarly sprayed.
(§4) Next, 20 individual sugarcanes were cut from each area on the initial day of spraying, after 15 days of spraying, after 30 days of spraying and after 45 days of spraying, and thereafter the stems were squeezed and sugar was recovered from the juice to obtain the yield. Each yield was compared with the yield of the initial day of spraying and the rate of increase (%) was calculated. The analysis on the sugar content in the squeezed juice of sugarcane stems was carried out similarly as in the case of Example 1.

sugarcane [2] = experiment: Example 3: sugar content of sugarcane stem juice after pyrimisulfan back pack spraying, field test in Brazil; conditions: 40 g/ha
Protocol: as §1, §2
At the time the Brix value of sugarcane grown in a sugarcane cultivated area in Brazil (an average Brix value in the harvesttime being 18%) became 88% of the aforesaid average Brix value, pyrimisulfan (pyrimisulfan prepared by a method disclosed in JP2000-44546A) was diluted with water so that the amount of the effective ingredient in 105 liters of the spraying liquid could be equal to the used amount shown in Table 4, and the liquid was sprayed above the plant by the aid of a CO2-pressurized back pack sprayer to the test area at a rate of 105 liters per hectare.
as §3, §4

sugarcane [3] = experiment: Example 5: sugar content of sugarcane stem juice after bispyribac-sodium and/or gibberellin spraying, field test in Brazil; conditions: 10 g/ha
Protocol: as §1, §2
At the time the Brix value of sugarcane grown in a sugarcane cultivated area in Brazil (an average Brix value in the harvesttime being 18%) became 88% of the aforesaid average Brix value, a bispyribac-sodium formulation (a commercially available product, a tradename, “NOMINEE 400SC”) and a gibberellin formulation (a commercially available product, a tradename, “PRO-GIBB”) were admixed together and diluted with water or separately diluted with water so that the amount of the effective ingredient in 105 liters of each of the spraying liquids could be equal to the used amount shown in Table 8, and each liquid was sprayed above the plant by the aid of a CO2-pressurized back pack sprayer to the test area at a rate of 105 liters per hectare.
as §3, §4

COc1cc(OC)nc(Oc2cccc(Oc3nc(OC)cc(OC)n3)c2C(=O)ON=C(c2ccccc2)c2ccccc2)n1 [Pyribenzoxim, pyribenzoxim]
ATR increased rate from the initial day of spraying (sugarcane [1]; after 15 days of spraying): 14.2% | Brix increased rate from the initial day of spraying (sugarcane [1]; after 15 days of spraying): 10.9% | Concentration of soluble solid matter, Brix (sugarcane [1]; after 15 days of spraying): 17.8% | Total sugar amount recoverable from 1 kg of stem, ATR (sugarcane [1]; after 15 days of spraying): 128.1 g | ATR increased rate from the initial day of spraying (sugarcane [1]; after 30 days of spraying): 10.2% | Brix increased rate from the initial day of spraying (sugarcane [1]; after 30 days of spraying): 9.1% | Concentration of soluble solid matter, Brix (sugarcane [1]; after 30 days of spraying): 17.5% | Total sugar amount recoverable from 1 kg of stem, ATR (sugarcane [1]; after 30 days of spraying): 123.6 g | ATR increased rate from the initial day of spraying (sugarcane [1]; after 45 days of spraying): 22.0% | Brix increased rate from the initial day of spraying (sugarcane [1]; after 45 days of spraying): 19.7% | Concentration of soluble solid matter, Brix (sugarcane [1]; after 45 days of spraying): 19.2% | Total sugar amount recoverable from 1 kg of stem, ATR (sugarcane [1]; after 45 days of spraying): 136.8 g

COCc1cccc(C(O)c2nc(OC)cc(OC)n2)c1NS(=O)(=O)C(F)F (stereo not drawn) [Pyrimisulfan, pyrimisulfan]
ATR increased rate from the initial day of spraying (sugarcane [2]; after 15 days of spraying): 5.5% | Brix increased rate from the initial day of spraying (sugarcane [2]; after 15 days of spraying): 5.8% | Concentration of soluble solid matter, Brix (sugarcane [2]; after 15 days of spraying): 17.4% | Total sugar amount recoverable from 1 kg of stem, ATR (sugarcane [2]; after 15 days of spraying): 120.1 g | ATR increased rate from the initial day of spraying (sugarcane [2]; after 30 days of spraying): 9.5% | Brix increased rate from the initial day of spraying (sugarcane [2]; after 30 days of spraying): 7.6% | Concentration of soluble solid matter, Brix (sugarcane [2]; after 30 days of spraying): 17.7% | Total sugar amount recoverable from 1 kg of stem, ATR (sugarcane [2]; after 30 days of spraying): 124.6 g | ATR increased rate from the initial day of spraying (sugarcane [2]; after 45 days of spraying): 12.6% | Brix increased rate from the initial day of spraying (sugarcane [2]; after 45 days of spraying): 8.2% | Concentration of soluble solid matter, Brix (sugarcane [2]; after 45 days of spraying): 17.8% | Total sugar amount recoverable from 1 kg of stem, ATR (sugarcane [2]; after 45 days of spraying): 128.1 g

gibberellin
ATR increased rate from the initial day of spraying (sugarcane [3]; after 15 days of spraying): 5.3% | Brix increased rate from the initial day of spraying (sugarcane [3]; after 15 days of spraying): 5.5% | Concentration of soluble solid matter, Brix (sugarcane [3]; after 15 days of spraying): 17.2% | Total sugar amount recoverable from 1 kg of stem, ATR (sugarcane [3]; after 15 days of spraying): 120.5 g | ATR increased rate from the initial day of spraying (sugarcane [3]; after 30 days of spraying): 11.7% | Brix increased rate from the initial day of spraying (sugarcane [3]; after 30 days of spraying): 8.9% | Concentration of soluble solid matter, Brix (sugarcane [3]; after 30 days of spraying): 17.8% | Total sugar amount recoverable from 1 kg of stem, ATR (sugarcane [3]; after 30 days of spraying): 127.9 g | ATR increased rate from the initial day of spraying (sugarcane [3]; after 45 days of spraying): 3.8% | Brix increased rate from the initial day of spraying (sugarcane [3]; after 45 days of spraying): 3.1% | Concentration of soluble solid matter, Brix (sugarcane [3]; after 45 days of spraying): 16.8% | Total sugar amount recoverable from 1 kg of stem, ATR (sugarcane [3]; after 45 days of spraying): 118.8 g
